Assay results as given in ChEMBL document CHEMBL3784916, “Synthesis and anticancer activity of novel fluorinated asiatic acid derivatives” (Eur J Med Chem, 2016).

Experiments:
MIA PaCa-2 = experiment: Cytotoxicity against human MIAPaCa2 cells after 72 hrs by MTT assay; type: functional, cell-based
HeLa = experiment: Cytotoxicity against human HeLa cells after 72 hrs by MTT assay; type: functional, cell-based
BJ = experiment: Cytotoxicity against human BJ cells after 72 hrs by MTT assay; type: cell-based; conditions: human, bj
A-375 = experiment: Cytotoxicity against human A375 cells after 72 hrs by MTT assay; type: functional, cell-based
PC-3 = experiment: Cytotoxicity against human PC3 cells after 72 hrs by MTT assay; type: functional, cell-based
Jurkat = experiment: Cytotoxicity against human Jurkat cells after 72 hrs by XTT assay; type: functional, cell-based
MCF7 = experiment: Cytotoxicity against human MCF7 cells after 72 hrs by MTT assay; type: functional, cell-based
HT-29 = experiment: Cytotoxicity against human HT-29 cells after 72 hrs by MTT assay; type: functional, cell-based; conditions: HT-29, 72 h

Structure (SMILES)	Activity (MIA PaCa-2)	IC50 (HeLa)	Activity (BJ)	Activity (A-375)	Activity (PC-3)	Activity (Jurkat)	Activity (MCF7)	IC50 (HT-29)
CNC(=O)[C@]12CC[C@@H](C)[C@H](C)[C@H]1C1=CC[C@@H]3[C@@]4(C)C[C@@H](OC(C)=O)[C@H](OC(C)=O)[C@@](C)(COC(C)=O)[C@@H]4CC[C@@]3(C)[C@]1(C)CC2	Dose-dependent effect	1.1 µM	Dose-dependent effect	Dose-dependent effect	Dose-dependent effect	Dose-dependent effect	Dose-dependent effect	–
C[C@H]1[C@H](C)CC[C@@]23CC[C@]4(C)[C@](OC2=O)([C@H](F)C[C@@H]2[C@@]5(C)C(C=O)=C[C@@](C)(COC(=O)CCC(=O)O)[C@@H]5CC[C@]24C)[C@H]13	Dose-dependent effect	3.48 µM	Dose-dependent effect	Dose-dependent effect	Dose-dependent effect	Dose-dependent effect	Dose-dependent effect	6.35 µM
C[C@H]1[C@H](C)CC[C@@]23CC[C@]4(C)[C@](OC2=O)([C@H](F)C[C@@H]2[C@@]5(C)C(C#N)=C[C@@](C)(CO)[C@@H]5CC[C@]24C)[C@H]13	Dose-dependent effect	7.5 µM	Dose-dependent effect	Dose-dependent effect	Dose-dependent effect	Dose-dependent effect	Dose-dependent effect	–
COC(=O)[C@H](C)NC(=O)[C@]12CC[C@@H](C)[C@H](C)[C@H]1C1=CC[C@@H]3[C@@]4(C)C[C@@H](OC(C)=O)[C@H](OC(C)=O)[C@@](C)(COC(C)=O)[C@@H]4CC[C@@]3(C)[C@]1(C)CC2	Dose-dependent effect	1.07 µM	Dose-dependent effect	Dose-dependent effect	Dose-dependent effect	Dose-dependent effect	Dose-dependent effect	–
CC(=O)OC[C@@]1(C)[C@@H]2CC[C@]3(C)[C@H](CC=C4[C@@H]5[C@@H](C)[C@H](C)CC[C@]5(C(N)=O)CC[C@]43C)[C@@]2(C)C[C@@H](OC(C)=O)[C@@H]1OC(C)=O	Dose-dependent effect	1.65 µM	Dose-dependent effect	Dose-dependent effect	Dose-dependent effect	Dose-dependent effect	Dose-dependent effect	–
CC(=O)OC[C@@]1(C)[C@@H]2CC[C@]3(C)[C@H](C[C@@H](F)[C@]45OC(=O)[C@@]6(CC[C@@H](C)[C@H](C)[C@H]64)CC[C@]53C)[C@@]2(C)CC(=O)[C@@H]1OC(C)=O	Dose-dependent effect	11.7 µM	Dose-dependent effect	Dose-dependent effect	Dose-dependent effect	Dose-dependent effect	Dose-dependent effect	–
CC(=O)OC[C@@]1(C)[C@@H]2CC[C@]3(C)[C@H](CC=C4[C@@H]5[C@@H](C)[C@H](C)CC[C@]5(C(=O)O)CC[C@]43C)[C@@]2(C)C[C@@H](OC(C)=O)[C@@H]1OC(C)=O	Dose-dependent effect	6.1 µM	Dose-dependent effect	Dose-dependent effect	Dose-dependent effect	Dose-dependent effect	Dose-dependent effect	–
COC(=O)CNC(=O)[C@]12CC[C@@H](C)[C@H](C)[C@H]1C1=CC[C@@H]3[C@@]4(C)C[C@@H](OC(C)=O)[C@H](OC(C)=O)[C@@](C)(COC(C)=O)[C@@H]4CC[C@@]3(C)[C@]1(C)CC2	Dose-dependent effect	0.98 µM	Dose-dependent effect	Dose-dependent effect	Dose-dependent effect	Dose-dependent effect	Dose-dependent effect	–
